Laboratory results published in patent publication US20230346764A1, “Methods and Compositions for Treating Pruritus, Xerosis, and Associated Disease Using CCR3-Inhibitors” (Alkahest, Inc., priority 2017, published 2023).

Key:
[1] = Half-life of Compound 1; conditions: read-out: t½ (converted)
[2] = system: SKH-1 Elite mice; assay: Oxazolone model of chronic skin inflammation: blood lymphocyte and white blood cell counts; type: in vivo, mouse; conditions: day 29; PO; Compound 1 30 mg/kg b.i.d., Dexamethasone 1.5 mg/kg q.d.
Experimental: FIGS. 9A and 9B report the effects on blood lymphocyte (FIG. 9A) and white blood cell (WBC) (FIG. 9B) levels in mice treated as in FIG. 8. Lymphocyte level reduction was severe with dexamethasone treated mice and less so with Compound 1 treatment.
The Oxazolone model of chronic skin inflammation, was tested using Compound 1 and a known anti-inflammatory, dexamethasone. SKH-1 Elite mice were sensitized with 10 µL of a high dose of topical Oxazolone (5% wt/vol in 100% EtOH) on their back and a subsequent chronic inflammation was triggered using low doses of topical Oxazolone (0.1% wt/vol in 100% EtOH) every other day on both flanks. […]
Three hundred (300) µL of whole blood in 10 mM EDTA freshly collected at day 29 of the study and erythrocytes was analyzed for counting of lymphocytes (FIG. 9A) and white blood cells (WBC) (FIG. 9B) using an Advia - 120 hematology analyzer. Lymphocyte and white blood cell (WBC) populations were quantified for each treatment group (n=3, 6, 8, 8, 8, 6, respectively). All data are mean ± s.e.m. and statistical significance was assessed using one-way ANOVA followed by Tukey’s multiple comparisons test with the following adjusted p-value thresholds: <0.05 (*), < 0.01 (**), < 0.001 (***) and <0.0001 (****).

half-life [1]	blood lymphocyte level reduction [2]	Compound
18 h	–	Cc1cc(C(=O)N(C)C)cc(NC(=O)[C@H]2CCC(=O)N2C2CCN(Cc3ccc(Cl)c(C)c3)CC2)n1 [Compound 1]
–	severe	C[C@@H]1C[C@H]2[C@@H]3CCC4=CC(=O)C=C[C@]4(C)[C@@]3(F)[C@@H](O)C[C@]2(C)[C@@]1(O)C(=O)CO [Dexamethasone]
